The values below come from PubChem BioAssay AID272 (DTP/NCI, 2004).

The structures appear in SMILES notation. Values joined by “and” are separate entries in the source; they are usually repeats but may differ in a detail not shown here. Equal entries are not always repeated. Inconclusive results are not listed.

In this experiment the test system is Lewis lung carcinoma i.m., BDF1 mice, T/C %. Briefly: NCI In Vivo Anticancer Drug Screen. Data for tumor model Lewis Lung Carcinoma (intramuscular) in B6D2F1 (BDF1) mice. The method in brief:
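Compound given to mice with transplantable tumours; survival or tumour size compared against the vehicle control group, reported as T divided by C.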

[1] abbreviates: endpoint: median survival time, dose: 0.5 mg/kg/injection, schedule: Q01DX011 (ip), vehicle: saline, higher = longer survival.

Turning to `CNNCc1ccc(C(=O)NC(C)C)cc1`, the T/C is 86 % of control (endpoint: mean tumor weight (est.), dose: 23.0 mg/kg/injection, schedule: Q01DX009 (ip), vehicle: saline, higher = larger tumour); 95 % of control (endpoint: mean tumor weight (est.), dose: 39.0 mg/kg/injection, schedule: Q01DX009 (ip), vehicle: saline, higher = larger tumour); 64 % of control (endpoint: mean tumor weight (est.), dose: 65.0 mg/kg/injection, schedule: Q01DX009 (ip), vehicle: saline, higher = larger tumour); 79 % of control (endpoint: mean tumor weight (est.), dose: 108.0 mg/kg/injection, schedule: Q01DX009 (ip), vehicle: saline, higher = larger tumour); 95 % of control (endpoint: mean tumor weight (est.), dose: 180.0 mg/kg/injection, schedule: Q01DX009 (ip), vehicle: saline, higher = larger tumour); 37 % of control (endpoint: mean tumor weight (est.), dose: 300.0 mg/kg/injection, schedule: Q01DX009 (ip), vehicle: saline, higher = larger tumour). Further, the T/C is, setting by setting: (endpoint: mean tumor weight, dose: 23.0 mg/kg/injection, schedule: Q01DX011 (ip), vehicle: saline, higher = larger tumour) 100 % of control; (endpoint: mean tumor weight, dose: 37.5 mg/kg/injection, schedule: Q01DX011 (ip), vehicle: saline, higher = larger tumour) 78 % of control; (endpoint: mean tumor weight, dose: 39.0 mg/kg/injection, schedule: Q01DX011 (ip), vehicle: saline, higher = larger tumour) 72 % of control; (endpoint: mean tumor weight, dose: 65.0 mg/kg/injection, schedule: Q01DX011 (ip), vehicle: saline, higher = larger tumour) 37 % of control; (endpoint: mean tumor weight, dose: 75.0 mg/kg/injection, schedule: Q01DX011 (ip), vehicle: saline, higher = larger tumour) 62 % of control; (endpoint: mean tumor weight, dose: 108.0 mg/kg/injection, schedule: Q01DX011 (ip), vehicle: saline, higher = larger tumour) 62 % of control. For the same molecule, the T/C was 35 % of control (endpoint: mean tumor weight, dose: 150.0 mg/kg/injection, schedule: Q01DX011 (ip), vehicle: saline, higher = larger tumour); 41 % of control (endpoint: mean tumor weight, dose: 180.0 mg/kg/injection, schedule: Q01DX011 (ip), vehicle: saline, higher = larger tumour); 97 % of control (endpoint: median survival time, dose: 37.5 mg/kg/injection, schedule: Q01DX011 (ip), vehicle: saline, higher = longer survival); 91 % of control (endpoint: median survival time, dose: 75.0 mg/kg/injection, schedule: Q01DX011 (ip), vehicle: saline, higher = longer survival); 95 % of control (endpoint: median survival time, dose: 150.0 mg/kg/injection, schedule: Q01DX011 (ip), vehicle: saline, higher = longer survival).
Regarding `NC(Cc1ccc(N(CCCl)CCCl)cc1)C(=O)O` (stereo not drawn), the T/C was 76 % of control (endpoint: mean tumor weight, dose: 1.0 mg/kg/injection, schedule: Q01DX011 (ip), vehicle: Klucel (hydroxypropylcellulose) (HPC), higher = larger tumour); 99 % of control (endpoint: mean tumor weight, dose: 2.0 mg/kg/injection, schedule: Q01DX011 (ip), vehicle: Klucel (hydroxypropylcellulose) (HPC), higher = larger tumour); 52 % of control (endpoint: mean tumor weight, dose: 4.0 mg/kg/injection, schedule: Q01DX011 (ip), vehicle: Klucel (hydroxypropylcellulose) (HPC), higher = larger tumour); 110 % of control (endpoint: median survival time, dose: 1.0 mg/kg/injection, schedule: Q01DX011 (ip), vehicle: Klucel (hydroxypropylcellulose) (HPC), higher = longer survival); 102 % of control (endpoint: median survival time, dose: 2.0 mg/kg/injection, schedule: Q01DX011 (ip), vehicle: Klucel (hydroxypropylcellulose) (HPC), higher = longer survival).
For the molecule `O=c1[nH]cc(N(CCCl)CCCl)c(=O)[nH]1`, the T/C reads like this: (endpoint: median survival time, dose: 0.13 mg/kg/injection, schedule: Q01DX011 (ip), vehicle: other, higher = longer survival) 104 % of control; (endpoint: median survival time, dose: 0.25 mg/kg/injection, schedule: Q01DX011 (ip), vehicle: other, higher = longer survival) 110 % of control; (endpoint: median survival time, dose: 0.5 mg/kg/injection, schedule: Q01DX011 (ip), vehicle: other, higher = longer survival) 102 % of control; under setting [1], 92 % of control.
As for `OC(CBr)C(O)C(O)C(O)CBr` (stereo not drawn), the T/C is 61 % of control (endpoint: mean tumor weight (est.), dose: 50.0 mg/kg/injection, schedule: Q01DX011 (ip), vehicle: Klucel (hydroxypropylcellulose) (HPC), higher = larger tumour); 59 % of control (endpoint: mean tumor weight (est.), dose: 100.0 mg/kg/injection, schedule: Q01DX011 (ip), vehicle: Klucel (hydroxypropylcellulose) (HPC), higher = larger tumour); 44 % of control (endpoint: mean tumor weight (est.), dose: 200.0 mg/kg/injection, schedule: Q01DX011 (ip), vehicle: Klucel (hydroxypropylcellulose) (HPC), higher = larger tumour); 85 % of control (endpoint: mean tumor weight, dose: 25.0 mg/kg/injection, schedule: Q01DX011 (ip), vehicle: Klucel (hydroxypropylcellulose) (HPC), higher = larger tumour); 70 % of control (endpoint: mean tumor weight, dose: 50.0 mg/kg/injection, schedule: Q01DX011 (ip), vehicle: Klucel (hydroxypropylcellulose) (HPC), higher = larger tumour); 93 % of control (endpoint: mean tumor weight, dose: 100.0 mg/kg/injection, schedule: Q01DX011 (ip), vehicle: Klucel (hydroxypropylcellulose) (HPC), higher = larger tumour). Moreover, the T/C runs as follows: (endpoint: mean tumor weight, dose: 125.0 mg/kg/injection, schedule: Q01DX011 (ip), vehicle: Klucel (hydroxypropylcellulose) (HPC), higher = larger tumour) 101 % of control; (endpoint: mean tumor weight, dose: 200.0 mg/kg/injection, schedule: Q01DX011 (ip), vehicle: Klucel (hydroxypropylcellulose) (HPC), higher = larger tumour) 72 % of control; (endpoint: mean tumor weight, dose: 250.0 mg/kg/injection, schedule: Q01DX011 (ip), vehicle: Klucel (hydroxypropylcellulose) (HPC), higher = larger tumour) 100 % of control; (endpoint: mean tumor weight, dose: 400.0 mg/kg/injection, schedule: Q01DX011 (ip), vehicle: Klucel (hydroxypropylcellulose) (HPC), higher = larger tumour) 55 % of control; (endpoint: median survival time, dose: 25.0 mg/kg/injection, schedule: Q01DX011 (ip), vehicle: Klucel (hydroxypropylcellulose) (HPC), higher = longer survival) 94 % of control; (endpoint: median survival time, dose: 50.0 mg/kg/injection, schedule: Q01DX011 (ip), vehicle: Klucel (hydroxypropylcellulose) (HPC), higher = longer survival) 111 % of control. The T/C by setting is: (endpoint: median survival time, dose: 125.0 mg/kg/injection, schedule: Q01DX011 (ip), vehicle: Klucel (hydroxypropylcellulose) (HPC), higher = longer survival) 93 % of control; (endpoint: median survival time, dose: 200.0 mg/kg/injection, schedule: Q01DX011 (ip), vehicle: Klucel (hydroxypropylcellulose) (HPC), higher = longer survival) 97 % of control and 112 % of control; (endpoint: median survival time, dose: 250.0 mg/kg/injection, schedule: Q01DX011 (ip), vehicle: Klucel (hydroxypropylcellulose) (HPC), higher = longer survival) 100 % of control; (endpoint: median survival time, dose: 400.0 mg/kg/injection, schedule: Q01DX011 (ip), vehicle: Klucel (hydroxypropylcellulose) (HPC), higher = longer survival) 94 % of control.
Consider `Cc1c[n+]2c3ccccc3c3ccccc3c2s1`, for which the T/C (endpoint: mean tumor weight, dose: 10.0 mg/kg/injection, schedule: Q01DX011 (ip), vehicle: saline, higher = larger tumour) is 112 % of control and the T/C (endpoint: median survival time, dose: 10.0 mg/kg/injection, schedule: Q01DX011 (ip), vehicle: saline with Tween-80, higher = longer survival) is 89 % of control.
On to `CC(=O)OC1C(=O)C(O)C(C)OC1O[C@@H]1C[C@@]2(C)[C@@H]3CC=C4[C@@H](C[C@H](O)C(=O)C4(C)C)[C@]3(C)C(=O)C[C@]2(C)[C@H]1[C@@](C)(O)C(=O)/C=C/C(C)(C)O` (stereo partly drawn), for which the T/C is, setting by setting: (endpoint: mean tumor weight, dose: 0.5 mg/kg/injection, schedule: Q01DX011 (ip), vehicle: saline, higher = larger tumour) 41 % of control; (endpoint: mean tumor weight, dose: 1.0 mg/kg/injection, schedule: Q01DX011 (ip), vehicle: saline, higher = larger tumour) 32 % of control; (endpoint: mean tumor weight, dose: 2.0 mg/kg/injection, schedule: Q01DX011 (ip), vehicle: saline, higher = larger tumour) 41 % of control; under setting [1], 113 % of control; (endpoint: median survival time, dose: 1.0 mg/kg/injection, schedule: Q01DX011 (ip), vehicle: saline, higher = longer survival) 89 % of control; (endpoint: median survival time, dose: 2.0 mg/kg/injection, schedule: Q01DX011 (ip), vehicle: saline, higher = longer survival) 91 % of control.
As to `O=[N+]([O-])c1ccc(N/N=C/CC(O)CO)c([N+](=O)[O-])c1` (stereo not drawn), the T/C (endpoint: mean tumor weight (est.), dose: 100.0 mg/kg/injection, schedule: Q01DX011 (ip), vehicle: saline with Tween-80, higher = larger tumour) was 57 % of control; the T/C (endpoint: mean tumor weight (est.), dose: 200.0 mg/kg/injection, schedule: Q01DX011 (ip), vehicle: saline with Tween-80, higher = larger tumour) is 52 % of control; the T/C (endpoint: median survival time, dose: 100.0 mg/kg/injection, schedule: Q01DX011 (ip), vehicle: saline with Tween-80, higher = longer survival) is 92 % of control.
`COCC(O)Cn1ccnc1[N+](=O)[O-]` (stereo not drawn): the T/C runs as follows: (endpoint: median survival time, dose: 600.0 mg/kg/injection, schedule: Q01DX001 (ip), vehicle: saline, higher = longer survival) 90 % of control and 92 % of control and 96 % of control; (endpoint: median survival time, dose: 1000.0 mg/kg/injection, schedule: Q01DX001 (ip), vehicle: saline, higher = longer survival) 92 % of control and 104 % of control and 106 % of control.
As to `Cc1c2c(ccc3ccccc32)c[n+]2ccccc12`, the T/C (endpoint: mean tumor weight (est.), dose: 2.5 mg/kg/injection, schedule: Q01DX011 (ip), vehicle: saline, higher = larger tumour) was 60 % of control; the T/C (endpoint: mean tumor weight (est.), dose: 5.0 mg/kg/injection, schedule: Q01DX011 (ip), vehicle: saline, higher = larger tumour) was 112 % of control; the T/C (endpoint: mean tumor weight (est.), dose: 10.0 mg/kg/injection, schedule: Q01DX011 (ip), vehicle: saline, higher = larger tumour) was 65 % of control; the T/C (endpoint: median survival time, dose: 2.5 mg/kg/injection, schedule: Q01DX011 (ip), vehicle: saline, higher = longer survival) is 107 % of control; the T/C (endpoint: median survival time, dose: 5.0 mg/kg/injection, schedule: Q01DX011 (ip), vehicle: saline, higher = longer survival) was 92 % of control; the T/C (endpoint: median survival time, dose: 10.0 mg/kg/injection, schedule: Q01DX011 (ip), vehicle: saline, higher = longer survival) was 94 % of control.
Take `CC(=O)c1c(O)c(C)c(O)c2c1OC1=CC(=O)C(C(C)=O)C(=O)C12C` (stereo not drawn): the T/C is, setting by setting: (endpoint: mean tumor weight, dose: 53.0 mg/kg/injection, schedule: Q01DX011 (ip), vehicle: other, higher = larger tumour) 110 % of control; (endpoint: mean tumor weight, dose: 79.0 mg/kg/injection, schedule: Q01DX011 (ip), vehicle: other, higher = larger tumour) 92 % of control; (endpoint: mean tumor weight, dose: 118.0 mg/kg/injection, schedule: Q01DX011 (ip), vehicle: other, higher = larger tumour) 105 % of control; (endpoint: mean tumor weight, dose: 177.0 mg/kg/injection, schedule: Q01DX011 (ip), vehicle: other, higher = larger tumour) 77 % of control; (endpoint: median survival time, dose: 53.0 mg/kg/injection, schedule: Q01DX011 (ip), vehicle: other, higher = longer survival) 98 % of control; (endpoint: median survival time, dose: 79.0 mg/kg/injection, schedule: Q01DX011 (ip), vehicle: other, higher = longer survival) 103 % of control. In addition, the T/C (endpoint: median survival time, dose: 177.0 mg/kg/injection, schedule: Q01DX011 (ip), vehicle: other, higher = longer survival) was 96 % of control.
